From the supplement of paper PMC6206229
≈ marks a conversion by molar mass, not a printed value.

Key:
[1] = test system: Staphylococcus aureus ATCC 29213 (MSSA); assay: minimum inhibitory concentration; extreme values may be limits of the assay
Outline: (§1)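 Broth microdilution in 96-well plates, following CLSI guidance with a resazurin redox read-out, was used to test methicillin-susceptible and methicillin-resistant Staphylococcus aureus. Compounds ranging from 0 to 100 µM were incubated with the bacteria at 37°C for 24 h, after which 30 µl of 0.015% resazurin was added for 2–4 h, and every plate carried positive controls. The minimum inhibitory concentration was taken as the lowest concentration at which wells stayed blue instead of turning pink, and runs were performed at least twice in triplicate.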

[2] = test system: Staphylococcus aureus ATCC 700699 (MRSA); assay: as above
Outline: as §1

Row | SMILES | minimum inhibitory concentration [1] | minimum inhibitory concentration [2]
1 | COc1ccc(C(=N)N)cc1-c1cn(-c2ccc(C(=N)N)cc2)nn1 | > 50 µM | > 50 µM
2 | COc1ccc(CN2CCOc3ccc(C(C)(O)CN(C)C)cc3C2)cc1C (stereo not given) | > 50 µM | > 50 µM
3 | Cc1ccc(S(=O)(=O)n2cc(-c3ccnc(N)c3)c3cc(Br)cnc32)cc1 | > 50 µM | > 50 µM
4 | O=C(C1CCN(c2cc(-n3cccc3)ncn2)CC1)N1CCc2ccccc2C1 | > 50 µM | > 50 µM
5 | OCc1ccc(-c2cncc(Nc3cccc(Cl)c3)c2)cc1 | > 50 µM | > 50 µM
6 | Cc1nn(C)cc1C(C)Nc1nncc(-c2ccc(C(F)(F)F)cc2)n1 (stereo not given) | > 50 µM | > 50 µM
7 | Nc1ncnc2c1c(-c1cnc3ccccc3c1)nn2CC1CCNCC1 | > 50 µM | > 50 µM
8 | COc1cccc(CC(=O)N2CCC(n3c(C)nc4ccc(F)cc43)CC2)c1 | > 50 µM | > 50 µM
9 | O=S(=O)(c1ccc(Cl)cc1)N1CCN(C(=S)NCc2ccco2)CC1 | > 50 µM | > 50 µM
10 | CC(C)c1ncc(-c2ccncc2)c([C@H]2CC[C@H](CNC(=O)c3cccnc3)CC2)n1 | > 50 µM | > 50 µM
11 | Nc1cccnc1Nc1ccc(Cl)cc1 | > 50 µM | > 50 µM
12 | CC(C)(C(=O)Nc1ccc(F)cc1)n1cc(-c2ccccc2F)cn1 | > 50 µM | > 50 µM
13 | CCCCS(=O)(=O)Nc1ccc2cnn(C)c2c1 | > 50 µM | > 50 µM
14 | O=C(Nc1ccnc(-c2cccnc2)n1)c1cc(C(F)(F)F)cc(C(F)(F)F)c1 | > 50 µM | > 50 µM
15 | CCOc1ccc2cc(-c3nn(CC4CCN(C)CC4)c4ncnc(N)c34)ccc2c1 | > 50 µM | > 50 µM
16 | CC(C)(C)OC(=O)N1CCC(Cn2nc(-c3cnc4ccccc4c3)c3c(N)ncnc32)CC1 | > 50 µM | > 50 µM
17 | Cc1cc(O)nc(-n2nc(C)cc2C)n1 | > 50 µM | > 50 µM
18 | O=C1N(Cc2cc3ccccc3s2)CC2CN(Cc3ccccc3)CCN12 (stereo not given) | > 50 µM | > 50 µM
19 | COc1ccc(-c2nnc3ccc(-c4cccc(C(C)C)c4)cn23)cc1OC | > 50 µM | > 50 µM
20 | CC(=O)NCC1CN(c2ccc(-c3ccc(CNCc4cn[nH]n4)cc3)c(F)c2)C(=O)O1 (stereo not given) | 6.25 µM (≈ 2.74 µg/mL) | 6.25 µM (≈ 2.74 µg/mL)
21 | Nc1ncc(Br)cc1-c1nc2cc(Cl)cnc2[nH]1 | > 50 µM | > 50 µM
22 | Cc1cc(NC(=O)c2ccc(S(=O)(=O)N(Cc3ccccc3)C(C)C)cc2)no1 | > 50 µM | > 50 µM
23 | COc1ccc(Cn2cnc3c(-c4ccco4)nc(Cl)nc32)cc1 | > 50 µM | > 50 µM
24 | COc1cccc(-n2nnnc2S(=O)(=O)Cc2ccccc2)c1 | 50 µM (≈ 16.5 µg/mL) | 50 µM (≈ 16.5 µg/mL)

Row | SMILES | minimum inhibitory concentration [1] | minimum inhibitory concentration [2]
25 | Cc1[nH]c2cc(F)cc(F)c2c(=O)c1-c1ccc(Oc2ccc(OC(F)(F)F)cc2)cc1 | > 50 µM | > 50 µM
26 | COC(=O)c1c(NC(=O)c2c(F)c(F)c(F)c(F)c2F)sc2c1CCCCC2 | > 50 µM | > 50 µM
27 | COc1ccc2nc(C)cc(OCC(=O)Nc3ccccc3OC)c2c1 | > 50 µM | > 50 µM
28 | O=C1[C@@H](Oc2ccccc2)[C@@H](c2ccc(Cl)cc2)N1CCn1cnc2c(NCc3ccccc3)ncnc21 | > 50 µM | > 50 µM
29 | O=C(NCCc1c[nH]c2ccccc12)c1cc2ccccc2oc1=O | > 50 µM | > 50 µM
30 | CCC(Sc1nc2ccccc2o1)C(=O)Nc1nccs1 (stereo not given) | > 50 µM | 50 µM (≈ 16 µg/mL)
31 | COc1ccc(N(CCc2cccc(C)n2)C(C)=O)cc1 | > 50 µM | > 50 µM
32 | Cc1cc(C)n(-c2ccc(NC(=O)C3CCN(Cc4cnc(C)s4)CC3)cc2)n1 | > 50 µM | > 50 µM
33 | CC[C@@H](CO)NCCN[C@@H](CC)CO | > 50 µM | > 50 µM
34 | CC(C)(C)OC(=O)N1CCN(c2cc(-c3ccc(Oc4ccccc4)cc3)n[nH]2)CC1 | > 50 µM | > 50 µM
35 | COc1cccc(NC(=O)c2c(NC(=O)c3cccnc3)sc3c2CCC3)c1 | > 50 µM | > 50 µM
36 | CC(=O)N(CCN(C(=O)c1ccc(F)cc1)c1ccccc1)c1ccccc1 | > 50 µM | > 50 µM
37 | O=C(NC1CC1)c1ccc(N2CCC(Cc3ccccc3)CC2)nc1 | > 50 µM | > 50 µM
38 | Cc1ccc2nc(C)c(-c3ccn(Cc4ccccc4)n3)n2c1 | > 50 µM | > 50 µM
39 | CC(=O)NC[C@@H]1CN(c2ccc(N3CCOCC3)c(F)c2)C(=O)O1 | 6.25 µM (≈ 2.11 µg/mL) | 3.12 µM (≈ 1.05 µg/mL)
40 | CC(C(=O)N1CCCC1)N1CCN(S(=O)(=O)c2ccc(C(C)(C)C)cc2)CC1 (stereo not given) | > 50 µM | > 50 µM
41 | c1ccc(C[C@@H]2CN(c3nccc(Oc4ccc(-n5ccnc5)cc4)n3)CCN2)cc1 | > 50 µM | > 50 µM
42 | Clc1cccc(C(c2ccc(CN3CCNCC3)cc2)n2ccnc2)c1 (stereo not given) | > 50 µM | > 50 µM
43 | O=C(Nc1ccc(N2CCNCC2)cc1)c1ccn2ncc(-c3cccc(Cl)c3)c2n1 | > 50 µM | > 50 µM
44 | COc1cc(C2=NCCN2)ccc1-c1cn(-c2cccc(C3=NCCN3)c2)nn1 | > 50 µM | > 50 µM
45 | CC(C)C(C(=O)Nc1ccc(S(=O)(=O)N(C)C)cc1)c1ccc(Cl)cc1 (stereo not given) | > 50 µM | > 50 µM
46 | CCn1cnc2c(Nc3cc(F)cc(F)c3)nc(C#N)nc21 | > 50 µM | > 50 µM
47 | CN1CCN(c2cc(-c3ccc(F)cc3)nc(-c3ccncc3)n2)CC1 | > 50 µM | > 50 µM
48 | O=C(C1CCN(c2nnnn2-c2ccccc2)CC1)N1CCc2ccccc2C1 | > 50 µM | > 50 µM

Row | SMILES | minimum inhibitory concentration [1] | minimum inhibitory concentration [2]
49 | Cc1ccc(-c2nc(CN(Cc3ccccn3)C(C)C)cs2)o1 | > 50 µM | > 50 µM
50 | CCN(CC)CCCN1CCN(C(=O)c2cccc(-c3noc(C(F)(F)F)n3)c2)CC1 | > 50 µM | > 50 µM
51 | CC(C)C(Oc1cccc2ccccc12)C(=O)O (stereo not given) | > 50 µM | > 50 µM
52 | COc1ccccc1OCCCCn1c(C2CC2)nc2ccccc21 | > 50 µM | > 50 µM
53 | Cc1cc2nc(NC(=O)C(C)(C)C)nc(Cl)c2n1Cc1ccc(Cl)cc1 | > 50 µM | > 50 µM
54 | COCC(C)NC(=O)CSc1ncnc2sc(-c3ccccc3)cc12 (stereo not given) | > 50 µM | > 50 µM
55 | O=C(CCC1CCCCC1)Nc1cccc(-c2nnc(-c3ccco3)o2)c1 | > 50 µM | > 50 µM
56 | O=C(c1[nH]nc2c1CCCC2)N1CCN(Cc2ccc3c(c2)OCO3)CC1 | > 50 µM | > 50 µM
57 | CNC1C(OC2C(OC3C(O)C(O)C(N=C(N)N)C(O)C3N=C(N)N)OC(C)C2(O)C=O)OC(CO)C(O)C1O (stereo not given) | > 50 µM | > 50 µM
58 | CCOc1ccccc1NC(C)C(=O)Nc1cc(C(F)(F)F)ccc1N1CCOCC1 (stereo not given) | > 50 µM | > 50 µM
59 | CNC(=O)c1nn(C)c2c1C(C)(C)Cc1cnc(Nc3ccc(N4CCN(C)CC4)cc3)nc1-2 | > 50 µM | > 50 µM
60 | CO/N=C(\C(=O)OC)c1ccccc1CO/N=C(\C)c1cccc(C(F)(F)F)c1 | > 50 µM | > 50 µM
61 | N#CCN(CCCCN1CCN(c2ccc(F)cc2)CC1)C(=O)OCc1ccccc1 | > 50 µM | > 50 µM
62 | CC(=O)OCC1OC([S-])C(OC(C)=O)C(OC(C)=O)C1OC(C)=O.CCP(CC)CC.[Au+] (stereo not given) | 0.39 µM | 0.78 µM
63 | Cc1ccc(NC(=O)CC2COc3ccccc3O2)cc1Cl (stereo not given) | > 50 µM | > 50 µM
64 | Cc1cc(C(=O)Nc2ccc(-c3ccccc3)cc2)no1 | > 50 µM | > 50 µM
65 | Cc1cc(NCCc2ccccc2)nc(NC(=N)Nc2ccc(Cl)cc2)n1 | 25 µM (≈ 9.52 µg/mL) | 25 µM (≈ 9.52 µg/mL)
66 | Cc1nnc(NC(=O)c2cn(-c3ccccc3)nc2-c2ccccc2C)o1 | > 50 µM | > 50 µM
67 | NS(=O)(=O)c1cncc(-c2ccc3nccc(-c4cn[nH]c4)c3n2)c1 | > 50 µM | > 50 µM
68 | CC(Oc1ccccc1)C(=O)Nc1nc(-c2ccccn2)cs1 (stereo not given) | 50 µM (≈ 16.3 µg/mL) | 50 µM (≈ 16.3 µg/mL)
69 | O=C(Nc1nc(-c2ccccn2)cs1)c1cncn1-c1ccccc1 | > 50 µM | > 50 µM
70 | CCCn1c(CNc2ccccc2O)nc2ccccc21 | > 50 µM | > 50 µM
